In ChEMBL document CHEMBL1201862, “PubChem BioAssay data set” (2004):
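Five concentrations, 48 hours, 96-well plates. Here, GI50 denotes the concentration required for 50% inhibition of growth.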 Calls of active or inactive are those of the source. No stated cut-off is given here; in the data, active = GI50 up to about 1.1 µM and inactive = higher.

What was measured:
Assay in all cases: NCI-60 cell line screen, 48 h
NCI-H226 = system: NCI-H226
SF-539 = system: SF-539
UO-31 = system: UO-31
LOX IMVI = system: LOX IMVI
RXF 393 = system: RXF 393
SW-620 = system: SW-620
SR = system: SR
SNB-75 = system: SNB-75
UACC-62 = system: UACC-62
IGROV-1 = system: IGROV-1
SF-295 = system: SF-295
786-0 = system: 786-0
OVCAR-5 = system: OVCAR-5
ACHN = system: ACHN
M14 = system: M14
HOP-62 = system: HOP-62
HOP-92 = system: HOP-92
A498 = system: A498

Measured: GI50

CC1C(c2ccccc2)=CCON1c1ccccc1 (stereo not given)
inactive: NCI-H226 > 100 µM | SF-539 > 100 µM | UO-31 > 100 µM | LOX IMVI > 100 µM | RXF 393 > 100 µM | SW-620 > 100 µM | SR > 100 µM | SNB-75 > 100 µM | UACC-62 > 100 µM | IGROV-1 > 100 µM | SF-295 > 100 µM | 786-0 > 100 µM | OVCAR-5 > 100 µM | ACHN > 100 µM | M14 > 100 µM | HOP-62 > 100 µM

CC(=O)O[C@H]1CCC2[C@@H]3CCC4=C(O)c5nocc5C[C@]4(C)C3CC[C@@]21C (stereo not given in full)
inactive: NCI-H226 > 100 µM | SF-539 > 100 µM | HOP-92 > 100 µM | UO-31 > 100 µM | LOX IMVI > 100 µM | RXF 393 > 100 µM | SW-620 > 100 µM | A498 > 100 µM | SNB-75 > 100 µM | UACC-62 > 100 µM | IGROV-1 > 100 µM | SF-295 > 100 µM | 786-0 > 100 µM | OVCAR-5 > 100 µM | ACHN > 100 µM | M14 > 100 µM | HOP-62 > 100 µM

CCCC(=O)c1c(NOC2OC(COC(C)=O)C(OC(C)=O)C(OC(C)=O)C2OC(C)=O)nc(OC)n(C)c1=O (stereo not given)
inactive: NCI-H226 > 100 µM | SF-539 > 100 µM | UO-31 6.1 µM | LOX IMVI > 100 µM | RXF 393 > 100 µM | SW-620 > 100 µM | SR > 100 µM | SNB-75 > 100 µM | UACC-62 > 100 µM | IGROV-1 > 100 µM | SF-295 > 100 µM | 786-0 > 100 µM | OVCAR-5 > 100 µM | ACHN > 100 µM | M14 > 100 µM | HOP-62 > 100 µM

CCCCN(CC)CC(C(C)=O)c1c(O)c2ccccc2oc1=O (stereo not given)
inactive: NCI-H226 > 100 µM | SF-539 > 100 µM | UO-31 > 100 µM | LOX IMVI > 100 µM | RXF 393 > 100 µM | SW-620 > 100 µM | SR > 100 µM | A498 > 100 µM | SNB-75 > 100 µM | UACC-62 > 100 µM | IGROV-1 > 100 µM | SF-295 > 100 µM | 786-0 > 100 µM | OVCAR-5 > 100 µM | ACHN > 100 µM | M14 > 100 µM | HOP-62 > 100 µM

Cc1ccc(S(=O)(=O)OCC23CCC(C4CC42)C2CC23)cc1 (stereo not given)
inactive: NCI-H226 95.7 µM | HOP-92 29.2 µM | UO-31 44.2 µM | LOX IMVI > 100 µM | SW-620 > 100 µM | SR 38.5 µM | A498 96.2 µM | UACC-62 65.6 µM | IGROV-1 > 100 µM | SF-295 50.8 µM | 786-0 > 100 µM | OVCAR-5 > 100 µM | ACHN > 100 µM | M14 > 100 µM | HOP-62 52.7 µM

C[C@]12CCC3[C@@H](CC[C@@H]4c5nonc5CC[C@]34C)C1CC[C@@H]2O (stereo not given in full)
inactive: NCI-H226 38.3 µM | SF-539 17.4 µM | HOP-92 23 µM | UO-31 > 10 µM | LOX IMVI 19.6 µM | RXF 393 24.8 µM | SW-620 29.3 µM | A498 25.2 µM | SNB-75 27.2 µM | UACC-62 30.9 µM | IGROV-1 41.8 µM | SF-295 34.8 µM | 786-0 25.3 µM | OVCAR-5 > 100 µM | ACHN 23.6 µM | M14 23.6 µM | HOP-62 28.4 µM

Cc1ccc(NCC(=O)N2CC(=O)Nc3ccccc32)c(C)c1
inactive: NCI-H226 > 100 µM | SF-539 > 100 µM | HOP-92 > 100 µM | UO-31 > 100 µM | LOX IMVI > 100 µM | RXF 393 > 100 µM | SW-620 > 100 µM | SR > 100 µM | SNB-75 > 100 µM | UACC-62 95.1 µM | SF-295 > 100 µM | 786-0 > 100 µM | OVCAR-5 > 100 µM | ACHN > 100 µM | M14 > 100 µM | HOP-62 > 100 µM

CCOC(=O)C(C(=O)c1ccccc1-c1ccccc1C(=O)O)=P(c1ccccc1)(c1ccccc1)c1ccccc1
inactive: NCI-H226 24.4 µM | SF-539 18.9 µM | UO-31 > 10 µM | LOX IMVI 20.3 µM | RXF 393 37.2 µM | SW-620 31.3 µM | SR 23.6 µM | A498 25.4 µM | SNB-75 12.8 µM | UACC-62 17.4 µM | IGROV-1 20.6 µM | SF-295 31.9 µM | 786-0 37.8 µM | ACHN 30 µM | M14 38.5 µM | HOP-62 18.8 µM

O=C(O)C(CS)Nc1c2ccccc2[n+]([O-])c2ccccc12 (stereo not given)
inactive: NCI-H226 > 100 µM | UO-31 49.8 µM | LOX IMVI > 100 µM | SW-620 > 100 µM | A498 > 100 µM | SNB-75 > 100 µM | UACC-62 > 100 µM | IGROV-1 > 100 µM | SF-295 > 100 µM | 786-0 > 100 µM | OVCAR-5 > 100 µM | ACHN > 100 µM | M14 > 100 µM | HOP-62 > 100 µM

Cc1cc2c(c(C#N)c1C)NC(=O)CCC2=O
inactive: SF-539 > 100 µM | UO-31 16.5 µM | RXF 393 64 µM | SW-620 > 100 µM | SR > 100 µM | A498 > 100 µM | SNB-75 > 100 µM | UACC-62 > 100 µM | IGROV-1 > 100 µM | SF-295 > 100 µM | 786-0 > 100 µM | ACHN > 100 µM | M14 > 100 µM | HOP-62 > 100 µM

C=CC1(C(=O)O)CCC(C(C)(C)C)CC1 (stereo not given)
inactive: NCI-H226 > 100 µM | SF-539 > 100 µM | HOP-92 > 100 µM | UO-31 > 100 µM | RXF 393 > 100 µM | SW-620 > 100 µM | SR > 100 µM | A498 > 100 µM | SNB-75 > 100 µM | UACC-62 > 100 µM | IGROV-1 > 100 µM | SF-295 > 100 µM | 786-0 > 100 µM | OVCAR-5 > 100 µM | ACHN > 100 µM | M14 > 100 µM | HOP-62 > 100 µM

COc1cc2c(Cc3cc(OCc4ccccc4)ccc3N)nccc2c(OC)c1OC
inactive: NCI-H226 > 10 µM | SF-539 > 10 µM | HOP-92 > 10 µM | UO-31 > 10 µM | LOX IMVI > 10 µM | RXF 393 > 10 µM | SW-620 > 10 µM | SR > 10 µM | SNB-75 > 10 µM | UACC-62 > 10 µM | IGROV-1 > 10 µM | SF-295 > 10 µM | 786-0 > 10 µM | OVCAR-5 > 10 µM | ACHN > 10 µM | M14 > 10 µM | HOP-62 > 10 µM

C[C@@H]1C[C@@H]2C(=O)N(c3ccccc3)C(=O)[C@@H]2c2[nH]c3ccc(Br)cc3c21
inactive: SF-539 65.8 µM | HOP-92 27.6 µM | UO-31 45.9 µM | LOX IMVI 96.8 µM | RXF 393 43.4 µM | SW-620 35.5 µM | SR 42 µM | A498 68.4 µM | SNB-75 20.2 µM | UACC-62 84.7 µM | IGROV-1 87.1 µM | SF-295 32.4 µM | 786-0 39.2 µM | OVCAR-5 > 100 µM | ACHN 45.1 µM | M14 75.2 µM | HOP-62 23.3 µM

N#CC(c1ccccc1)c1nc2ccc(N)cc2[n+]([O-])c1C(C#N)c1ccccc1 (stereo not given)
inactive: NCI-H226 > 100 µM | SF-539 > 100 µM | UO-31 68.2 µM | LOX IMVI 64.9 µM | RXF 393 38.9 µM | SW-620 57.4 µM | SR 23.8 µM | A498 > 100 µM | UACC-62 47.3 µM | IGROV-1 > 100 µM | SF-295 > 100 µM | 786-0 > 100 µM | OVCAR-5 > 100 µM | ACHN 58.1 µM | M14 86.7 µM | HOP-62 > 100 µM

C1=Cc2nc1c(-c1ccncc1)c1ccc([n-]1)c(-c1ccncc1)c1nc(c(-c3ccncc3)c3ccc([n-]3)c2-c2ccncc2)C=C1.[Zn+2]
inactive: NCI-H226 > 100 µM | SF-539 > 100 µM | HOP-92 > 100 µM | UO-31 > 100 µM | LOX IMVI > 100 µM | SW-620 > 100 µM | SNB-75 > 100 µM | UACC-62 > 100 µM | IGROV-1 > 100 µM | SF-295 > 100 µM | 786-0 > 100 µM | OVCAR-5 > 100 µM | ACHN > 100 µM | M14 > 100 µM | HOP-62 > 100 µM

C[C@@H]1CC[C@@]2(C)OC(c3ccccc3)[C@H](CO)N2C1=O (stereo not given in full)
inactive: SF-539 > 100 µM | HOP-92 > 100 µM | LOX IMVI > 100 µM | RXF 393 > 100 µM | SW-620 > 100 µM | SR > 100 µM | A498 > 100 µM | SNB-75 > 100 µM | UACC-62 > 100 µM | IGROV-1 > 100 µM | SF-295 > 100 µM | 786-0 > 100 µM | OVCAR-5 > 100 µM | ACHN > 100 µM | HOP-62 > 100 µM

CCOC(=O)C(Cc1cn(S(=O)(=O)c2ccccc2)c2ccccc12)(NC(C)=O)C(=O)OCC
inactive: NCI-H226 21.3 µM | SF-539 30.3 µM | HOP-92 19.8 µM | UO-31 17.1 µM | SW-620 54.2 µM | SR 15.2 µM | SNB-75 8.18 µM | UACC-62 27.9 µM | IGROV-1 46.7 µM | SF-295 29.1 µM | 786-0 72.8 µM | OVCAR-5 > 100 µM | ACHN 32.3 µM | M14 32.1 µM | HOP-62 27.2 µM
